Patent US12344620B2, “BRD4 inhibitor compound in solid form and preparation method therefor and use thereof” (CSPC ZHONGQI PHARMACEUTICAL TECHNOLOGY (SHIJIAZHUANG) CO., …, priority 2019, dated 2025)

How the values were obtained:
[1] = tested on: Human breast cancer MDA-MB-231_luc cells; experiment: In vivo pharmacodynamics, MDA-MB-231_luc subcutaneous xenograft tumor model; conditions: 50 mg/kg PO BID x 21 days
Protocol: • Species: mouse • Strain: BALB/c nude mouse • Week-age and weight: 6-8 weeks of age, 18-22 grams of body weight • Sex: Female • Supplier: Shanghai Sippr-BK laboratory animal Co. Ltd.
Human breast cancer MDA-MB-231_luc cells were cultured in monolayer in vitro and the culture conditions were RPMI-1640 culture medium (supplier: Gibco; article number: 22400-089; manufacturing batch number: 4868546) with 10% fetal bovine serum, 100 U/ml penicillin and 100 μg/mL streptomycin. The culture was performed at 37° C. in 5% CO2. Conventional digestion treatment with pancreatin-EDTA for passage was carried out twice a week. When the cells were in the exponential growth phase, the cells were harvested, counted, and inoculated. […]
The experiment index was to investigate whether tumor growth was inhibited, delayed or cured. Tumor diameter was measured twice a week with vernier calipers. […]
The tumor inhibition effect of the compound was evaluated by TGI (%) or relative tumor proliferation rate T/C (%). […]
Relative tumor proliferation rate T/C (%) was calculated according to the below equation: T/C %=TRTV/CRTV×100% (TRTV: RTV of the treatment group; CRTV: RTV of the negative control group). The relative tumor volume (RTV) was calculated according to the results of the tumor measurement. […]

[2] = tested on: Human prostatic cancer PC-3 cells; experiment: In vivo pharmacodynamics, PC-3 subcutaneous xenograft tumor model; conditions: 50 mg/kg PO BID x 21 days
Protocol: The formulation method of the test substance was the same as in Table 6, and the animal grouping and the dosage regimen were the same as in Table 7.
• Species: mouse • Strain: BALB/c nude mouse • Week-age and weight: 6-8 weeks of age, 18-22 grams of body weight • Sex: male • Supplier: Shanghai Sippr-BK laboratory animal Co. Ltd.
Human prostatic cancer PC-3 cells were cultured in monolayer in vitro, and the culture conditions were F-12K culture medium (supplier: Gibco; article number: 21127-022; manufacturing batch number: 1868870) with 10% fetal bovine serum, 100 U/mL penicillin and 100 μg/mL streptomycin. The culture was performed at 37° C. in 5% CO2. Conventional digestion treatment with pancreatin-EDTA for passage was carried out twice a week. When the cells were in the exponential growth phase, the cells were harvested, counted, and inoculated.
0.1 mL of 10×10^6 PC-3 cells were subcutaneously inoculated into the right-back of each nude mouse. The grouping and administration was started when the average tumor volume reached 100-150 mm^3.
3.3 Tumor measurement, experiment indices, and statistical analysis were the same as MDA-MB-231 model.

[3] = target: hERG potassium ion channel (Homo sapiens (Human), UniProt Q12809); experiment: hERG potassium channel current, automatic patch-clamp QPatch, CHO-hERG cells; type: cell-based; conditions: highest test concentration 40 μM
Protocol: The effect of the compound of formula (I) on the hERG potassium channel current was investigated by adopting CHO (Chinese Hamster ovary) cell stably expressing the hERG potassium ion channel and using the fully automatic patch-clamp QPatch technology.
CHO-hERG cells were cultured in a 175 cm^2 culture flask. After the cell density increased to 60-80%, the culture medium was removed, the cells were washed once with 7 mL PBS, and then 3 mL Detachin was added for digestion.
After the digestion was complete, 7 mL of culture medium was added for neutralization, and then the mixture was centrifuged. The supernatant was removed, and then 5 mL of culture medium was added for resuspension to ensure that the cell density was 2-5×10^6/mL. […]
The single-cell high-impedance sealing and the whole-cell mode formation process were all automatically completed by the Qpatch instrument. […] The data were recorded for 2 minutes, then extracellular fluid was given, and then the data were recorded for 5 minutes. […] The experimental data were analyzed by XLFit software.

hERG potassium ion channel, sequence (Q12809 whole entry): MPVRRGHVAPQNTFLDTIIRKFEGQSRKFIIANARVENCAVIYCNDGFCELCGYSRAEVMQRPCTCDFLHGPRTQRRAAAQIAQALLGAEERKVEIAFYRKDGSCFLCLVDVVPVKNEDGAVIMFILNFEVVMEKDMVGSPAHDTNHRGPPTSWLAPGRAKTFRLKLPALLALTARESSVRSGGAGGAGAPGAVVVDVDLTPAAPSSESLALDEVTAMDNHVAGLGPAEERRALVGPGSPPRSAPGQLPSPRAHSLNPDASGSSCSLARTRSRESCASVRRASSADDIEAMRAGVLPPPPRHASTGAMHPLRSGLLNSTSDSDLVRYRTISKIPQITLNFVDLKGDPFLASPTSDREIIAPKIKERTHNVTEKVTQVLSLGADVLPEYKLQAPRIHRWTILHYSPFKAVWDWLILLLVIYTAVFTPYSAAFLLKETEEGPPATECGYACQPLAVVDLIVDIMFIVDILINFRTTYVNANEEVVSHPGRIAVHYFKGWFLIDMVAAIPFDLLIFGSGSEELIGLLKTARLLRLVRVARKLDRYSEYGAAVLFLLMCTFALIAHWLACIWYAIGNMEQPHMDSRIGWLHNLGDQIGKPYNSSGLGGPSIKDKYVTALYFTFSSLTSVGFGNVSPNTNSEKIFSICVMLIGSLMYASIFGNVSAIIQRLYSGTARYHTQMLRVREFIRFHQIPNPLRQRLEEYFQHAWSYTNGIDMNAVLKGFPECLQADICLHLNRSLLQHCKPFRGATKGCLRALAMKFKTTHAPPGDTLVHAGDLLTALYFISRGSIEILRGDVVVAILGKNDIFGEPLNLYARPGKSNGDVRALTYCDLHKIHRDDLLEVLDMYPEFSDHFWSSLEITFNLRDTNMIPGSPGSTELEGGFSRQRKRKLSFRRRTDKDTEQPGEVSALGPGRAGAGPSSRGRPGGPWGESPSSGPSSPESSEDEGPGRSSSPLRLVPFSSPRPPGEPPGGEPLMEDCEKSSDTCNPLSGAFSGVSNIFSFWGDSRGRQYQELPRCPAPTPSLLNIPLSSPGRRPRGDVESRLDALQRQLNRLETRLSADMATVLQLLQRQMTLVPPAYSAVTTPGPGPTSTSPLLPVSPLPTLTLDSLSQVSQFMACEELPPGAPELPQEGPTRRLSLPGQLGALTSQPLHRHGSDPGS

Cc1sc2c(c1C)C(c1ccc(Cl)cc1)=N[C@@H](CC(=O)Nc1ccc3c(c1)COC3=O)c1nnc(C)n1-2 [Compound of formula (I)]
change in body weight of the animals [1]: no significant change
tolerability [1]: well tolerated
tolerability [2]: well tolerated
IC50 [3]: > 40 µM
